# Experimental data reported in patent publication US20090298897A1, “Treatment of Inflammatory Disorders With Triazole Compounds” (priority 2006, published 2009).
# Values joined by “and” are separate entries in the source; they are usually repeats but may differ in a detail not shown here. Equal values may be shown once.
# Assays:
# [1] = system: Interleukin-1 (IL-1); test: Expression of IL-1 in the skin of healthy volunteers (real-time PCR); type: in vivo, human
# Procedure: In this randomized, double-blind, left-right, placebo-controlled trial, the expression of Interleukin-1 (IL-1) in the skin of 15 healthy subjects was evaluated after a once daily application of rambazole gel at two different concentrations (0.35% or 0.07%) on intact skin for 9 days. The IL-1 biomarker was analyzed with real-time PCR.
# [2] = system: IL-1α; test: Expression of IL-1α, rambazole compared to retinoic acid (FIG. 2); type: in vivo, human
# Text: Also unexpectedly, rambazole-treated lesions (such as, for example, psoriatic lesions) continue to improve and show reduced inflammatory patterns for at least 3 months after discontinuation of treatment. Further, in contrast with retinoids such as isotretinoin, rambazole-treated inflammatory lesions responded rapidly within the first 4 weeks of treatment. This finding supports an antiinflammatory action for rambazole in addition to the typical effects on proliferation and differentiation.
# [3] = system: skin of volunteers, UVB; test: Effects of topical 0.35% rambazole on UVB-induced inflammation (chromametry); type: in vivo, human; conditions: topical 0.35% for 9 days, then 5 days UVB
# Text: In an investigator-blinded, placebo-controlled study, topical 0.35% rambazole was applied to the skin of volunteers for 9 days, followed by 5 days of induction of inflammation with UVB. Adapalene was used in the study as a standard anti-inflammatory agent.
# [4] = system: IP-10; test: IP-10 expression and secretion in IFNγ-activated normal human epidermal keratinocytes (ELISA); type: cell-based; conditions: 50 U/mL IFNγ; rambazole 10^-5 M to 3×10^-8 M for 18 hours
# Procedure: Fourth passage normal human epidermal keratinocytes were plated at 2,000 cells/well in low Ca^2+ KSFM. After 3 days incubation to 60% confluence, the medium was removed and cells were stimulated with 50 U/mL IFNγ and incubated with rambazole ranging from 10^-5 M to 3×10^-8 M for 18 hours. Interferon-inducible protein (IP-10) expression in the culture medium was determined using the IP-10 sandwich-type ELISA and all data were corrected for cell count. Values are represented as mean percentages±SD (n=4) versus drug solvent control.
# [5] = system: mild to moderate acne vulgaris; test: Treatment of acne vulgaris with topical rambazole; type: in vivo, human; conditions: after 12 weeks; daily topical 0.35% rambazole
# [6] = system: moderate to severe facial acne vulgaris; test: Treatment of acne vulgaris with oral rambazole (lesion counts); type: in vivo, human; conditions: for Table 3 (untitled, lesion count), Max. / Table 3 (untitled, lesion count), Mean / Table 3 (untitled, lesion count), Median / Table 3 (untitled, lesion count), Min. / Table 6 (untitled, summary of Table 5 lesion count), Max. / Table 6 (untitled, summary of Table 5 lesion count), Mean / Table 6 (untitled, summary of Table 5 lesion count), Median / Table 6 (untitled, summary of Table 5 lesion count), Min. / Table 4 (untitled, change of Table 3 count versus Visit 2), Max. / Table 4 (untitled, change of Table 3 count versus Visit 2), Mean / Table 4 (untitled, change of Table 3 count versus Visit 2), Median / Table 4 (untitled, change of Table 3 count versus Visit 2), Min. / Table 7 (untitled, change of Table 6 count versus Visit 2), Max. / Table 7 (untitled, change of Table 6 count versus Visit 2), Mean / Table 7 (untitled, change of Table 6 count versus Visit 2), Median / Table 7 (untitled, change of Table 6 count versus Visit 2), Min.: N 16; for Table 5 (untitled, lesion count per subject): individual subjects
# Procedure: Sixteen patients with moderate to severe facial acne vulgaris received a daily oral dose of 1 mg of rambazole for 12 weeks. […] The average lesion reduction was 79%. See Tables 3 through 7 for additional individual data. See FIGS. 5 and 6, respectively, for a comparison of the response to treatment of inflammatory lesions versus non-inflammatory lesions.
smiles,measurement,setting,value
CCC(CC)C(c1ccc(Nc2nc3ccccc3s2)cc1)n1cncn1 (stereo not shown) [rambazole],skin reaction reported by one subject,"[1]; 0.35% rambazole, during one day after 8 days of treatment",mild itching
same,local skin reactions during 9 days of treatment,[1]; gel 0.35% or 0.07% once daily,"no itching, irritating, stinging, burning or vesiculation occurred"
same,IL-1 expression in skin,"[1]; gel 0.35% or 0.07% once daily on intact skin for 9 days, healthy subjects",dose-dependently decrease
same,expression of IL-1,[2],decrease the expression of IL-1
same,phototoxicity (chromametry),[3],no indication of phototoxicity
same,IP-10 expression and secretion,[4],dose-dependently down regulated
same,reduction in global assessment score,[5],approximately 40%
same,serious adverse effects,[6]; 1 mg oral daily for 12 weeks,No serious adverse effects were reported
same,"Table 3 (untitled, lesion count), Max.",[6]; Visit No. 2,170
same,"Table 3 (untitled, lesion count), Mean",[6]; Visit No. 2,56.2
same,"Table 3 (untitled, lesion count), Median",[6]; Visit No. 2,48.0
same,"Table 3 (untitled, lesion count), Min.",[6]; Visit No. 2,15
same,"Table 6 (untitled, summary of Table 5 lesion count), Max.",[6]; Visit No. 2,199
same,"Table 6 (untitled, summary of Table 5 lesion count), Mean",[6]; Visit No. 2,81.3
same,"Table 6 (untitled, summary of Table 5 lesion count), Median",[6]; Visit No. 2,87.0
same,"Table 6 (untitled, summary of Table 5 lesion count), Min.",[6]; Visit No. 2,22
same,"Table 5 (untitled, lesion count per subject)",[6]; Visit No. 2,22 and 46 and 63 and 25 and 23 and 93 (2×) and 72 and 49 and 89 and 110 and 199 and 121 and 95 and 115 and 85
same,"Table 3 (untitled, lesion count), Max.",[6]; Visit No. 4,77
same,"Table 3 (untitled, lesion count), Mean",[6]; Visit No. 4,34.4
same,"Table 3 (untitled, lesion count), Median",[6]; Visit No. 4,34.5
same,"Table 3 (untitled, lesion count), Min.",[6]; Visit No. 4,3
same,"Table 4 (untitled, change of Table 3 count versus Visit 2), Max.",[6]; Visit No. 4,15
same,"Table 4 (untitled, change of Table 3 count versus Visit 2), Mean",[6]; Visit No. 4,−21.8
same,"Table 4 (untitled, change of Table 3 count versus Visit 2), Median",[6]; Visit No. 4,−10.0
same,"Table 4 (untitled, change of Table 3 count versus Visit 2), Min.",[6]; Visit No. 4,−159
same,"Table 6 (untitled, summary of Table 5 lesion count), Max.",[6]; Visit No. 4,122
same,"Table 6 (untitled, summary of Table 5 lesion count), Mean",[6]; Visit No. 4,51.4
same,"Table 6 (untitled, summary of Table 5 lesion count), Median",[6]; Visit No. 4,49.5
same,"Table 6 (untitled, summary of Table 5 lesion count), Min.",[6]; Visit No. 4,3
same,"Table 7 (untitled, change of Table 6 count versus Visit 2), Max.",[6]; Visit No. 4,10
same,"Table 7 (untitled, change of Table 6 count versus Visit 2), Mean",[6]; Visit No. 4,−29.9
same,"Table 7 (untitled, change of Table 6 count versus Visit 2), Median",[6]; Visit No. 4,−17.5
same,"Table 7 (untitled, change of Table 6 count versus Visit 2), Min.",[6]; Visit No. 4,−159
same,"Table 5 (untitled, lesion count per subject)",[6]; Visit No. 4,11 and 3 and 12 and 30 and 21 and 71 and 58 and 59 and 80 and 45 and 89 and 40 and 48 and 82 and 122 and 51
same,"Table 3 (untitled, lesion count), Max.",[6]; Visit No. 5,94
same,"Table 3 (untitled, lesion count), Mean",[6]; Visit No. 5,26.4
same,"Table 3 (untitled, lesion count), Median",[6]; Visit No. 5,27.0
same,"Table 3 (untitled, lesion count), Min.",[6]; Visit No. 5,1
same,"Table 4 (untitled, change of Table 3 count versus Visit 2), Max.",[6]; Visit No. 5,19
same,"Table 4 (untitled, change of Table 3 count versus Visit 2), Mean",[6]; Visit No. 5,−29.8
same,"Table 4 (untitled, change of Table 3 count versus Visit 2), Median",[6]; Visit No. 5,−22.0
same,"Table 4 (untitled, change of Table 3 count versus Visit 2), Min.",[6]; Visit No. 5,−142
same,"Table 6 (untitled, summary of Table 5 lesion count), Max.",[6]; Visit No. 5,146
same,"Table 6 (untitled, summary of Table 5 lesion count), Mean",[6]; Visit No. 5,39.5
same,"Table 6 (untitled, summary of Table 5 lesion count), Median",[6]; Visit No. 5,40.5
same,"Table 6 (untitled, summary of Table 5 lesion count), Min.",[6]; Visit No. 5,1
same,"Table 7 (untitled, change of Table 6 count versus Visit 2), Max.",[6]; Visit No. 5,31
same,"Table 7 (untitled, change of Table 6 count versus Visit 2), Mean",[6]; Visit No. 5,−41.8
same,"Table 7 (untitled, change of Table 6 count versus Visit 2), Median",[6]; Visit No. 5,−45.0
same,"Table 7 (untitled, change of Table 6 count versus Visit 2), Min.",[6]; Visit No. 5,−140
same,"Table 5 (untitled, lesion count per subject)",[6]; Visit No. 5,9 and 1 and 4 (2×) and 2 (2×) and 48 and 64 and 42 and 39 and 33 and 80 and 59 and 55 and 44 and 146
same,"Table 3 (untitled, lesion count), Max.",[6]; Visit No. 6,37
